Experimental data: US20240041042A1, “1-(PYRIDYL)-5-AZINYLPYRAZOLE DERIVATIVES, AND THEIR USE FOR CONTROL OF UNDESIRED PLANT GROWTH” (Bayer Aktiengesellschaft, priority 2020, published 2024)
Where two headings read alike, the source gives them in different places.

Legend:
Format in all cases: in vivo
[1] = test system: Setaria viridis (SETVI); test: Pre-emergence herbicidal action against SETVI
How it was run: (§1)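 Pre-emergence soil-surface spray of compound, formulated as wettable powder or emulsion concentrate, in aqueous suspension or emulsion with 0.5% additive (600 l/ha; rate 320 g/ha or less). Activity rated visually after roughly 3 weeks in the greenhouse as a percentage of untreated controls, 0% meaning no difference.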

[2] = test system: Amaranthus retroflexus (AMARE); test: Post-emergence herbicidal action against AMARE; settings: 80 g/ha, visual rating about 3 weeks after treatment vs untreated controls (100% = plants have died, 0% = like control plants)
How it was run: (§2)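 Post-emergence greenhouse spray, one-leaf stage, 600 l/ha water plus 0.5% additive; WP or EC formulations; application rates 320 g/ha or lower. Visual % damage vs untreated controls at ~3 weeks.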

[3] = test system: Viola tricolor (VIOTR); test: Pre-emergence herbicidal action against VIOTR
How it was run: as §1

[4] = test system: Pharbitis purpurea (PHBPU); test: Post-emergence herbicidal action against PHBPU; settings: dosage 80 g/ha
How it was run: as §2

[5] = test system: Pharbitis purpurea (PHBPU); test: Pre-emergence herbicidal action against PHBPU; settings: dosage 320 g/ha
How it was run: as §1

[6] = test system: Alopecurus myosuroides (ALOMY); test: Post-emergence herbicidal action against ALOMY; settings: 80 g/ha, visual rating about 3 weeks after treatment vs untreated controls (100% = plants have died, 0% = like control plants)
How it was run: as §2

[7] = test system: Amaranthus retroflexus (AMARE); test: Pre-emergence herbicidal action against AMARE; settings: 320 g/ha, visual scoring after about 3 weeks vs untreated controls
How it was run: as §1

[8] = test system: Viola tricolor (VIOTR); test: Post-emergence herbicidal action against VIOTR; settings: 80 g/ha
How it was run: as §2

[9] = test system: Echinochloa crus-galli (ECHCG); test: Pre-emergence herbicidal action against ECHCG; settings: dosage 320 g/ha
How it was run: as §1

[10] = test system: Digitaria sanguinalis (DIGSA); test: Post-emergence herbicidal action against DIGSA; settings: 80 g/ha, visual rating about 3 weeks after treatment
How it was run: as §2

[11] = test system: Abutilon theophrasti (ABUTH); test: Post-emergence herbicidal action against ABUTH; settings: 80 g/ha, visual rating about 3 weeks after treatment vs untreated controls (100% = plants have died, 0% = like control plants)
How it was run: as §2

[12] = test system: Oryza sativa (ORYSA); settings: crop plant compatibility
How it was run: (§3)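 Test crops were treated 2 to 3 weeks after sowing, once they reached one leaf, by spraying compound in water with 0.5% additive at 600 l/ha. Visual scoring compared them with untreated controls roughly 3 weeks on, and appendices a, b and c denote different doses.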

[13] = test system: Zea mays (ZEAMX); settings: 20 g/ha, ZEAMX, effect in comparison to untreated controls
How it was run: as §3

[14] = test system: Polygonum convolvulus (POLCO); test: Post-emergence herbicidal action against POLCO; settings: dosage 80 g/ha
How it was run: as §2

[15] = test system: Setaria viridis (SETVI); test: Post-emergence herbicidal action against SETVI; settings: dosage 80 g/ha
How it was run: as §2

[16] = test system: Alopecurus myosuroides (ALOMY); test: Pre-emergence herbicidal action against ALOMY; settings: scored visually after about 3 weeks, 100% = plants have died
How it was run: as §1

[17] = test system: Lolium rigidum (LOLRI); test: Pre-emergence herbicidal action against LOLRI; settings: dosage 320 g/ha
How it was run: as §1

[18] = test system: Echinochloa crus-galli (ECHCG); test: Post-emergence herbicidal action against ECHCG; settings: dosage 80 g/ha
How it was run: as §2

[19] = test system: Zea mays (ZEAMX); settings: pre-emergence, 80 g/ha, crop plant compatibility, in comparison to untreated controls
How it was run: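 Scoring: visual, % of untreated control, about 3 weeks after a pre-emergence application to the soil surface. Application used WP or EC formulations diluted in water with 0.5% additive at 600 l/ha; dosage levels are marked by suffixes a, b and c.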

[20] = test system: Avena fatua (AVEFA); test: Pre-emergence herbicidal action against AVEFA; settings: 320 g/ha, visual scoring after about 3 weeks vs untreated controls
How it was run: as §1

[21] = test system: Matricaria inodora (MATIN); test: Pre-emergence herbicidal action against MATIN; settings: dosage 320 g/ha
How it was run: as §1

[22] = test system: Polygonum convolvulus (POLCO); test: Pre-emergence herbicidal action against POLCO
How it was run: as §1

[23] = test system: Abutilon theophrasti (ABUTH); test: Pre-emergence herbicidal action against ABUTH; settings: Dosage column 320 g/ha (title prints 3200 g/ha); scored visually after about 3 weeks; 100% = plants have died
How it was run: as §1

[24] = test system: Digitaria sanguinalis (DIGSA); test: Pre-emergence herbicidal action against DIGSA
How it was run: as §1

[25] = test system: Verconica persica (VERPE); test: Pre-emergence herbicidal action against VERPE; settings: dosage 320 g/ha
How it was run: as §1

Compound: CN(C)S(=O)(=O)NC(=O)COc1nn(-c2ncccc2F)c(-c2ccc(F)nc2)c1Br [Example I-36]
- Pre-emergence action against SETVI in % ([1]; dosage 80 g/ha): 100%
- Pre-emergence action against SETVI in % ([1]; dosage 320 g/ha): 100%
- Post-emergence action against AMARE in % [2]: 80%
- Pre-emergence action against VIOTR in % ([3]; 320 g/ha, Viola tricolor): 100%
- Pre-emergence action against VIOTR in % ([3]; dosage 80 g/ha): 100%
- Post-emergence action against PHBPU in % [4]: 80%
- Pre-emergence action against PHBPU in % [5]: 100%
- Post-emergence action against ALOMY in % [6]: 90%
- Pre-emergence action against AMARE in % [7]: 100%
- Post-emergence action against VIOTR in % [8]: 90%
- Pre-emergence action against ECHCG in % [9]: 100%
- Post-emergence action against DIGSA in % [10]: 90%
- Post-emergence action against ABUTH in % [11]: 80%
- Post-emergence action against ORYSA in % ([12]; 20 g/ha, effect vs untreated controls): 0%
- Post-emergence action against ORYSA in % ([12]; 80 g/ha, effect in comparison to untreated controls): 0%
- Post-emergence action against ZEAMX in % (crop plant compatibility) [13]: 20%
- Post-emergence action against POLCO in % [14]: 80%
- Post-emergence action against SETVI in % [15]: 80%
- Pre-emergence action against ALOMY ([16]; 80 g/ha): 100%
- Pre-emergence action against ALOMY ([16]; 320 g/ha): 100%
- Pre-emergence action against LOLRI in % [17]: 100%
- Post-emergence action against ECHCG in % [18]: 90%
- Pre-emergence action against ZEAMX in % [19]: 0%
- Pre-emergence action against AVEFA in % [20]: 90%
- Pre-emergence action against MATIN in % [21]: 100%
- Pre-emergence action against POLCO in % ([22]; dosage 80 g/ha): 80%
- Pre-emergence action against POLCO in % ([22]; dosage 320 g/ha): 90%
- Pre-emergence action against ABUTH [23]: 80%
- Pre-emergence action against DIGSA in % ([24]; 80 g/ha, visual scoring after about 3 weeks vs untreated controls): 100%
- Pre-emergence action against DIGSA in % ([24]; dosage 320 g/ha): 100%
- Pre-emergence action against VERPE in % [25]: 100%
